According to the NIST ThermoML archive (doi:10.1021/je700139p):
± gives the expanded uncertainty stated by the source. Blank lines part the entries; values can stand above or below the compound they belong to.

Assay: activity coefficient (dimensionless); of the first substance listed, at infinite dilution; xn = mol fraction of the nth substance listed
Conditions: 101 kPa, Liquid, Chromatography, x1 = 0

Structure (SMILES): Cc1ccc(C)cc1 [1,4-dimethylbenzene] + O=S1(=O)CCCC1
activity coefficient (333.15 K): 5.51 ± 0.38
activity coefficient (343.15 K): 5.25 ± 0.36
activity coefficient (353.15 K): 5.11 ± 0.35
activity coefficient (363.15 K): 4.88 ± 0.33
activity coefficient (373.15 K): 4.76 ± 0.32

Structure (SMILES): Cc1ccccc1 [toluene] + O=S1(=O)CCCC1
activity coefficient (333.15 K): 3.46 ± 0.23
activity coefficient (343.15 K): 3.38 ± 0.23
activity coefficient (353.15 K): 3.29 ± 0.22
activity coefficient (363.15 K): 3.23 ± 0.22
activity coefficient (373.15 K): 3.2 ± 0.22

Structure (SMILES): Cc1ccccc1C [1,2-dimethylbenzene] + O=S1(=O)CCCC1
activity coefficient (333.15 K): 4.57 ± 0.31
activity coefficient (343.15 K): 4.39 ± 0.3
activity coefficient (353.15 K): 4.28 ± 0.29
activity coefficient (363.15 K): 4.17 ± 0.28
activity coefficient (373.15 K): 4.04 ± 0.28

Structure (SMILES): Cc1cccc(C)c1 [1,3-dimethylbenzene] + O=S1(=O)CCCC1
activity coefficient (333.15 K): 5.35 ± 0.36
activity coefficient (343.15 K): 5.13 ± 0.35
activity coefficient (353.15 K): 4.98 ± 0.34
activity coefficient (363.15 K): 4.77 ± 0.33
activity coefficient (373.15 K): 4.65 ± 0.32

Continued, values first:

activity coefficient (333.15 K): 60.3 ± 4.1
activity coefficient (343.15 K): 53.1 ± 3.6
activity coefficient (353.15 K): 47.6 ± 3.3
activity coefficient (363.15 K): 41.2 ± 2.8
activity coefficient (373.15 K): 38.5 ± 2.6
Structure (SMILES): CCCCCCC [heptane] + O=S1(=O)CCCC1

activity coefficient (333.15 K): 147 ± 10
activity coefficient (343.15 K): 126 ± 8.6
activity coefficient (353.15 K): 107 ± 7.3
activity coefficient (363.15 K): 92.2 ± 6.3
activity coefficient (373.15 K): 79.8 ± 5.5
Structure (SMILES): CCCCCCCCCC [decane] + O=S1(=O)CCCC1

activity coefficient (333.15 K): 80.7 ± 5.5
activity coefficient (343.15 K): 70.5 ± 4.8
activity coefficient (353.15 K): 61.7 ± 4.2
activity coefficient (363.15 K): 54.3 ± 3.7
activity coefficient (373.15 K): 48.6 ± 3.3
Structure (SMILES): CCCCCCCC [octane] + O=S1(=O)CCCC1

activity coefficient (333.15 K): 2.32 ± 0.16
activity coefficient (343.15 K): 2.3 ± 0.16
activity coefficient (353.15 K): 2.28 ± 0.15
activity coefficient (363.15 K): 2.26 ± 0.15
activity coefficient (373.15 K): 2.25 ± 0.15
Structure (SMILES): c1ccccc1 [benzene] + O=S1(=O)CCCC1

activity coefficient (333.15 K): 4.82 ± 0.33
activity coefficient (343.15 K): 4.65 ± 0.32
activity coefficient (353.15 K): 4.48 ± 0.3
activity coefficient (363.15 K): 4.35 ± 0.3
activity coefficient (373.15 K): 4.26 ± 0.29
Structure (SMILES): CCc1ccccc1 [ethylbenzene] + O=S1(=O)CCCC1
